Consider five molecules from patent US12018059B2, “Human amylin analog polypeptides and methods of use” (Intarcia Therapeutics, Inc., priority 2018, dated 2024).

Starred links: 1 amine or outer side, 2 acyl side, 3 side chain; linkers in the order of their positions; H or OH if unused. Positions of bridges follow the written chain, without caps; N, C: chain ends. Residues, ends and D or L forms follow the SMILES beside them. Groups on a side chain read outwards from the residue. *: point of attachment. X2 = O=C(O)CCCCCCCCCCCCCCCCC(=O)N[C@@H](CCC(=O)NCOCCOCC(=O)NCOCCOCC(=O)*)C(=O)O; C16 diacid = O=C(O)CCCCCCCCCCCCCCC(=O)*; γGlu = O=C(O)[C@H](CCC(=O)[*:2])N[*:1]; Palmitoyl = CCCCCCCCCCCCCCCC(=O)*

Usually Vd stands for the apparent volume that relates the amount in the body to the concentration in plasma or blood. A higher Vd goes with extensive tissue distribution. What is called clearance is the rate of elimination divided by the concentration. A low value points to inefficient removal. For orientation: half-life means how long it takes for the measured level to halve.

The data set in a line: in vivo. More on the design: species or system Sprague-Dawley rats. The settings on record: rat, iv, 0.033 mg/kg. On the procedure:
Peptides were dissolved in sterile saline and administered as a 1-hour intravenous infusion to non-fasted male Sprague-Dawley rats (n=3 per group) via femoral vein cannula at a final dose of 0.033 mg/kg. […] Blood samples (approximately 250 μL) were collected for pharmacokinetic analysis via a jugular vein cannula at 0.25, 0.5, 0.75, 1, 1.17, 1.33, 1.5, 2, 4, 6, 8, 24, 30 and 48 hr post-start of infusion into microtainer tubes containing K2EDTA as anticoagulant and 25 μL of a protease inhibitor cocktail. Plasma was prepared by centrifugation and stored at −80° C. until analysis. The results of this analysis are shown in Table 9 and few exemplars in FIGS. 3a-3b. […]
A 60 μL aliquot of each plasma sample was placed into to a 96-well plate. To each well was added 6 μL of 0.5% Tween-20. Plates were then vortexed mixed for 10 minutes at 1200 rpm before 180 μL of 0.1% TFA in 2:1 ethanol:acetonitrile containing an appropriate internal standard was added to each well. Plates were vortex mixed for 5 min at 1300 rpm, and then centrifuged for 10 min at 2844×g. Supernatants (180 μL) were placed into a clean 96-well plate and evaporated under a nitrogen stream at 45° C. Residues were reconstituted in 80 μL of 20% acetonitrile (aq) containing 0.1% formic acid.
A […] aliquot of each plasma sample was diluted with […] of 10 mM ammonium acetate (pH 6.8) containing an appropriate internal standard and loaded onto an Oasis WCX microElution plate (Waters Corporation, Milford, MA) that had been pre-conditioned with […] of methanol and […] of deionized water. Samples were washed with […] of 5% ammonium hydroxide (aq) followed by […] of 20% acetonitrile in water. The analyte was eluted with […] of 5% formic acid in 75:25 acetonitrile:water. The eluent was dried under a nitrogen stream. Residues were reconstituted in 80 μL of 20% acetonitrile (aq) containing 0.1% formic acid.
All calibration standards were prepared in control rat plasma containing K2EDTA and protease inhibitor cocktail.
Samples and standards were analyzed by TurbolonSpray™ UPLC-MS/MS using a system consisting of a CTC HTS PAL auto-injector (Leap, Carrboro, NC), an Agilent Infinity 1290 system with column oven (Palo Alto, CA), a Valco switching valve (Houston, TX), and either an AB Sciex API 5600 TripleTOF™ or Sciex API 4000QTrap mass spectrometer (Framingham, MA). Samples were injected onto a 2.1×50 mm reverse phase C18 analytical column, typically a Waters CORTECS UPLC C18+, 1.6 μm (Waters Corporation, Milford, MA) or similar. […] Initial conditions consisted of 90% A and 10% B. The organic component was increased to 95% B over a period of 3-4 minutes, depending on the peptide. Typical flow rates were 600 μL/min. The column temperature was held constant at 40 or 50° C. Peptides were quantified by monitoring one or more product ions produced from a multiply charged parent ion.
For `CCCCCCCCCCCCCCCC(=O)N[C@@H](CCC(=O)N[C@@H](CCC(=O)NCCCC[C@H](NC(=O)[C@H](CCC(=O)O)NC(=O)[C@H](CC(N)=O)NC(=O)[C@H](C)NC(=O)[C@H](CC(C)C)NC(=O)[C@H](CCCNC(=N)N)NC(=O)[C@H](CCC(N)=O)NC(=O)[C@@H](NC(=O)[C@H](C)NC(=O)[C@@H]1CSSC[C@H](NC(=O)[C@@H](N)CO)C(=O)N[C@@H](CC(N)=O)C(=O)N[C@@H]([C@@H](C)O)C(=O)N[C@@H](CO)C(=O)N[C@@H]([C@@H](C)O)C(=O)N1)[C@@H](C)O)C(=O)N[C@@H](Cc1c[nH]cn1)C(=O)N[C@@H](CCCCN)C(=O)N[C@@H](CO)C(=O)N[C@@H](CO)C(=O)N[C@@H](CC(N)=O)C(=O)N[C@@H](CC(N)=O)C(=O)N[C@@H](Cc1ccccc1)C(=O)NCC(=O)N1CCC[C@H]1C(=O)N[C@H](C(=O)N[C@@H](CC(C)C)C(=O)N1CCC[C@H]1C(=O)N1CCC[C@H]1C(=O)N[C@H](C(=O)N[C@@H](CCCCN)C(=O)N[C@H](C(=O)NCC(=O)N[C@@H](CO)C(=O)N[C@@H](CCC(=O)O)C(=O)N[C@H](C(=O)N[C@@H](Cc1ccc(O)cc1)C(N)=O)[C@@H](C)O)C(C)C)[C@@H](C)O)[C@@H](C)CC)C(=O)O)C(=O)O` [Compound A123] (H-SCNTSTCATQRLANEK([γGlu-γGlu-Palmitoyl])HKSSNNFGPILPPTKVGSETY-NH2; disulfide 2-7), the Vd stood at 0.146 L/kg, the clearance turned out to be 0.58 mL/min/kg and the half-life was 3.2 h.

For `CC[C@H](C)[C@H](NC(=O)[C@@H]1CCCN1C(=O)CNC(=O)[C@H](Cc1ccccc1)NC(=O)[C@H](CC(N)=O)NC(=O)[C@H](CC(N)=O)NC(=O)[C@H](CO)NC(=O)[C@H](CO)NC(=O)[C@H](CCCCN)NC(=O)[C@H](Cc1c[nH]cn1)NC(=O)[C@H](CC(C)C)NC(=O)[C@H](CCCCNC(=O)CC[C@H](NC(=O)CC[C@H](NC(=O)CCCCCCCCCCCCCCC(=O)O)C(=O)O)C(=O)O)NC(=O)[C@H](CC(N)=O)NC(=O)[C@H](C)NC(=O)[C@H](CC(C)C)NC(=O)[C@H](CCCNC(=N)N)NC(=O)[C@H](CCC(N)=O)NC(=O)[C@@H](NC(=O)[C@H](C)NC(=O)[C@@H]1CSSC[C@H](NC(=O)[C@@H](N)CO)C(=O)N[C@@H](CC(N)=O)C(=O)N[C@@H]([C@@H](C)O)C(=O)N[C@@H](CO)C(=O)N[C@@H]([C@@H](C)O)C(=O)N1)[C@@H](C)O)C(=O)N[C@@H](CC(C)C)C(=O)N1CCC[C@H]1C(=O)N1CCC[C@H]1C(=O)N[C@H](C(=O)N[C@@H](CCCCN)C(=O)N[C@H](C(=O)NCC(=O)N[C@@H](CO)C(=O)N[C@@H](CCC(=O)O)C(=O)N[C@H](C(=O)N[C@@H](Cc1ccc(O)cc1)C(N)=O)[C@@H](C)O)C(C)C)[C@@H](C)O` [Compound A82] (H-SCNTSTCATQRLANK([γGlu-γGlu-C16 diacid])LHKSSNNFGPILPPTKVGSETY-NH2; disulfide 2-7), the Vd is 0.152 L/kg, the clearance is 0.667 mL/min/kg and the half-life is 3.17 h.

Regarding `CCCCCCCCCCCCCCCC(=O)N[C@@H](CCC(=O)NCCCC[C@H](NC(=O)[C@H](CCCNC(=N)N)NC(=O)[C@H](CCC(N)=O)NC(=O)[C@@H](NC(=O)[C@H](C)NC(=O)[C@@H]1CSSC[C@H](NC(=O)[C@@H](N)CO)C(=O)N[C@@H](CC(N)=O)C(=O)N[C@@H]([C@@H](C)O)C(=O)N[C@@H](CO)C(=O)N[C@@H]([C@@H](C)O)C(=O)N1)[C@@H](C)O)C(=O)N[C@@H](C)C(=O)N[C@@H](CC(N)=O)C(=O)N[C@@H](CCC(=O)O)C(=O)N[C@@H](CC(C)C)C(=O)N[C@@H](Cc1c[nH]cn1)C(=O)N[C@@H](CCCCN)C(=O)N[C@@H](CO)C(=O)N[C@@H](CO)C(=O)N[C@@H](CC(N)=O)C(=O)N[C@@H](CC(N)=O)C(=O)N[C@@H](Cc1ccccc1)C(=O)NCC(=O)N1CCC[C@H]1C(=O)N[C@H](C(=O)N[C@@H](CC(C)C)C(=O)N1CCC[C@H]1C(=O)N1CCC[C@H]1C(=O)N[C@H](C(=O)N[C@@H](CCCCN)C(=O)N[C@H](C(=O)NCC(=O)N[C@@H](CO)C(=O)N[C@@H](CCC(=O)O)C(=O)N[C@H](C(=O)N[C@@H](Cc1ccc(O)cc1)C(N)=O)[C@@H](C)O)C(C)C)[C@@H](C)O)[C@@H](C)CC)C(=O)O` [Compound A121] (H-SCNTSTCATQRK([γGlu-Palmitoyl])ANELHKSSNNFGPILPPTKVGSETY-NH2; disulfide 2-7), the Vd is 0.239 L/kg, the clearance was 2.11 mL/min/kg and the half-life was 1.8 h.

On to `CC[C@H](C)[C@H](NC(=O)[C@@H]1CCCN1C(=O)CNC(=O)[C@H](Cc1ccccc1)NC(=O)[C@H](CC(N)=O)NC(=O)[C@H](CC(N)=O)NC(=O)[C@H](CO)NC(=O)[C@H](CO)NC(=O)[C@H](CCCCN)NC(=O)[C@H](CCCCNC(=O)COCCOCNC(=O)COCCOCNC(=O)CC[C@H](NC(=O)CCCCCCCCCCCCCCCCC(=O)O)C(=O)O)NC(=O)[C@H](CC(C)C)NC(=O)[C@H](CCC(=O)O)NC(=O)[C@H](CC(N)=O)NC(=O)[C@H](C)NC(=O)[C@H](CC(C)C)NC(=O)[C@H](CCCNC(=N)N)NC(=O)[C@H](CCC(N)=O)NC(=O)[C@@H](NC(=O)[C@H](C)NC(=O)[C@@H]1CSSC[C@H](NC(=O)[C@@H](N)CO)C(=O)N[C@@H](CC(N)=O)C(=O)N[C@@H]([C@@H](C)O)C(=O)N[C@@H](CO)C(=O)N[C@@H]([C@@H](C)O)C(=O)N1)[C@@H](C)O)C(=O)N[C@@H](CC(C)C)C(=O)N1CCC[C@H]1C(=O)N1CCC[C@H]1C(=O)N[C@H](C(=O)N[C@@H](CCCCN)C(=O)N[C@H](C(=O)NCC(=O)N[C@@H](CO)C(=O)N[C@@H](CCC(=O)O)C(=O)N[C@H](C(=O)N[C@@H](Cc1ccc(O)cc1)C(N)=O)[C@@H](C)O)C(C)C)[C@@H](C)O` [Compound A99] (H-SCNTSTCATQRLANELK(X2)KSSNNFGPILPPTKVGSETY-NH2; disulfide 2-7; N-terminus assumed), for which the Vd turned out to be 0.128 L/kg, the clearance turned out to be 0.0948 mL/min/kg and the half-life was 19.5 h.

The molecule `CCCCCCCCCCCCCCCC(=O)N[C@@H](CCC(=O)NCCCC[C@H](NC(=O)[C@H](CCC(=O)O)NC(=O)[C@H](CC(N)=O)NC(=O)[C@H](C)NC(=O)[C@H](CC(C)C)NC(=O)[C@H](CCCNC(=N)N)NC(=O)[C@H](CCC(N)=O)NC(=O)[C@@H](NC(=O)[C@H](C)NC(=O)[C@@H]1CSSC[C@H](NC(=O)[C@@H](N)CO)C(=O)N[C@@H](CC(N)=O)C(=O)N[C@@H]([C@@H](C)O)C(=O)N[C@@H](CO)C(=O)N[C@@H]([C@@H](C)O)C(=O)N1)[C@@H](C)O)C(=O)N[C@@H](Cc1c[nH]cn1)C(=O)N[C@@H](CCCCN)C(=O)N[C@@H](CO)C(=O)N[C@@H](CO)C(=O)N[C@@H](CC(N)=O)C(=O)N[C@@H](CC(N)=O)C(=O)N[C@@H](Cc1ccccc1)C(=O)NCC(=O)N1CCC[C@H]1C(=O)N[C@H](C(=O)N[C@@H](CC(C)C)C(=O)N1CCC[C@H]1C(=O)N1CCC[C@H]1C(=O)N[C@H](C(=O)N[C@@H](CCCCN)C(=O)N[C@H](C(=O)NCC(=O)N[C@@H](CO)C(=O)N[C@@H](CCC(=O)O)C(=O)N[C@H](C(=O)N[C@@H](Cc1ccc(O)cc1)C(N)=O)[C@@H](C)O)C(C)C)[C@@H](C)O)[C@@H](C)CC)C(=O)O` [Compound A125] (H-SCNTSTCATQRLANEK([γGlu-Palmitoyl])HKSSNNFGPILPPTKVGSETY-NH2; disulfide 2-7) showed a Vd of 0.211 L/kg, a clearance of 3.56 mL/min/kg and a half-life of 0.963 h.
